Source: patent US20250009697A1, “COMPOSITION FOR INCREASING AMOUNT OF FOOD INGESTED AND/OR IMPROVING ANOREXIA, AND COMPOSITION FOR ACTIVATING TRANSIENT RECEPTOR POTENTIAL ANKYRIN 1” (HOUSE FOODS GROUP INC., priority 2021, published 2025)

Legend:
Format in all cases: cell-based
[1] = test system: Mock cell; assay: TRPA1 Activation Test 2: intracellular Ca2+ imaging assay 2-2, Mock cell; details: test sample 30 μM; Table 9
Method: (§1) A hTRPA1 stably expressing cell line in which expression of hTRPA1 had been induced in advance by a conventional method was prepared in a 96 well clear bottom plate, and the hTRPA1 activating action of rhein (produced by Tokyo Chemical Industry Co., Ltd.) was tested. Specifically, after each well was washed with PBS, 50 μL of an assay buffer (Hanks' balanced salt solution containing no calcium ion or magnesium ion that contained 1 mM of CaCl2 dihydrate, 20 mM of HEPES, and 0.1% BSA) containing calcium fluorescent indicator Calbryte™ 520 AM (produced by AAT Bioquest) in a final concentration of 4 μM was added, followed by incubating at 33° C. for 45 minutes. After washing with the assay buffer, 100 μL of the assay buffer was added to each well. This plate was set to FlexStation 3 (Molecular Devices, LLC), and a fluorescence intensity (excitation wavelength 490 nm, fluorescence wavelength 525 nm) at 31° C. was measured every two seconds, and 30 seconds after the start of the measurement, 100 μL of an assay buffer containing a test sample (allyl isothiocyanate (AITC) of positive control or rhein) which was prepared to have a certain final concentration or DMSO was added. Then, a well in which an assay buffer containing ionomycin (having a final concentration of 10 μM after the addition) instead of the test samples was added was also prepared as a reference for fluorescence intensity.
(§2) The measurement was continued from the start of the measurement up to 120 seconds, and the TRPA1 activation ability of the test samples was calculated in accordance with the following formula.
Activation rate (%)=(Fmax[s]−F0)/(Fmax[i]−F0)×100 • Fmax[s]: The maximum value of the fluorescence intensity when the test sample or positive control was added • F0: The average value of the fluorescence intensity for 20 seconds after the start of the measurement (base line) • Fmax[i]: The maximum value of the fluorescence intensity when ionomycin was added […]

[2] = molecular target: T1, Human TRPA1 (hTRPA1) (Homo sapiens, UniProt O75762); assay: TRPA1 Activation Test 1: intracellular Ca2+ imaging assay 1-1 to 1-3, hTRPA1 stably expressing cell line; details: test sample 30 μM; for TRPA1 activation rate, With antagonist: A-967079 1 μM
T1 construct: expressed in transfected cells
T1 sequence (O75762 whole entry): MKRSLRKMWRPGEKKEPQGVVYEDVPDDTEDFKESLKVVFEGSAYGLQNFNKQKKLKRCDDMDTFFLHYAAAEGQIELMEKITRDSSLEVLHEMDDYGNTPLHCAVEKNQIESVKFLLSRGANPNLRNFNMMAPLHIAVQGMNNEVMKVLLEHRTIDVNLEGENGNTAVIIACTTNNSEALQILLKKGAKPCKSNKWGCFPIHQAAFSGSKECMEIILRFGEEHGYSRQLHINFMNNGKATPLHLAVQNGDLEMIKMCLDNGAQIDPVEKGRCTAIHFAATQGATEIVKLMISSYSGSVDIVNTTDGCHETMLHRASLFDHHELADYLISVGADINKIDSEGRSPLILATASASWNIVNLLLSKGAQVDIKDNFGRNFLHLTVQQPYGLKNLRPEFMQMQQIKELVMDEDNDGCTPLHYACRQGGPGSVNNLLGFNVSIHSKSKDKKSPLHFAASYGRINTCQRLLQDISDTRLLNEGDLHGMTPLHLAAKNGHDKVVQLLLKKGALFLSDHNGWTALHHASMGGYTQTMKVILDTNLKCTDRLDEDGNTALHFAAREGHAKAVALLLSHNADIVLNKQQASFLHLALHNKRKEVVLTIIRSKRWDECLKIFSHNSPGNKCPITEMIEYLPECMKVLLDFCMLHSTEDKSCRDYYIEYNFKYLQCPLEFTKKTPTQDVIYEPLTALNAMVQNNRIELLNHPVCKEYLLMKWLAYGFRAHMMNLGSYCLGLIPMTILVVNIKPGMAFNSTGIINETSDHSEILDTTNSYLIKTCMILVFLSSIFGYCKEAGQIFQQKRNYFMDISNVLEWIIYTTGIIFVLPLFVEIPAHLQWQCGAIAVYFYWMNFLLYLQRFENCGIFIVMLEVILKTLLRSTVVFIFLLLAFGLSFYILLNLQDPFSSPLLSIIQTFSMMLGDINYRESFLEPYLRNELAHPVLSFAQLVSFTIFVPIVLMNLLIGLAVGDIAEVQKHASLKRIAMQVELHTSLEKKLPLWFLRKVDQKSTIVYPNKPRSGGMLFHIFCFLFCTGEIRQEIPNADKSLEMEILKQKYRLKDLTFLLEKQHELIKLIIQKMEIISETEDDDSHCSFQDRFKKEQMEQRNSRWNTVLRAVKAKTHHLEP
Method: (§3) DNAs encoding genes described in the following Table 2 were inserted into pcDNA 5/TO vector (Invitrogen) to prepare various expression vectors.
(§4) These expression vectors were transfected into T-REx™_293 cells (Invitrogen) by a conventional method using Lipofectamine LTX (Invitrogen). Then, various transfectants were cultured and cloned by a conventional method using Dulbecco's Modified Eagle Medium (DMEM, Nacalai Tesque Inc.), containing 10% fetal bovine serum (FBS, Cytiva), […] of hygromycin B, and 5 μg/mL of blasticidin S, as a drug selection medium to obtain a hTRPA1 stably expressing cell line, a hTRPV1 stably expressing cell line, and a hTRPM8 stably expressing cell line.
as §1, with “bottom plate (black),” for “bottom plate,”, “and a” for “and the”, “of the purified oxylipin or the R2 fraction (both were assumed to contain a compound having a molecular weight of 294) obtained in the above item 1” for “of rhein (produced by Tokyo Chemical Industry Co., Ltd.)”, “calcium ions” for “calcium ion”, “magnesium ions” for “magnesium ion”, “sample” for “sample (allyl isothiocyanate (AITC) of positive control or rhein)”
as §2
(§5) Activation rate (%)=(Fmax[s]−F0)/(Fmax[i]−F0)×100 • Fmax[s]: The maximum value of the fluorescence intensity when the test sample or the positive control was added • F0: The average value of the fluorescence intensity for 20 seconds after the start of the measurement (base line) • Fmax[i]: The maximum value of the fluorescence intensity when ionomycin was added
The TRPA1 activation ability was measured in the same manner as in the above (2) except that the R2 fraction or allyl isothiocyanate (AITC) was used as a test sample and the test was conducted with A-967079 (1 μM), which is a TRPA1-specific antagonist, or without A-967079. In addition, regarding the R2 fraction, the hTRPV1 stably expressing cell line or the hTRPM8 stably expressing cell line was used instead of the hTRPA1 stably expressing cell line to conduct the same test. Note that as positive controls, capsaicin was used for the hTRPV1 stably expressing cell line and icilin was used for the hTRPM8 stably expressing cell line.
The TRPA1 activation ability was measured in the same manner as in the above (2) except that each isolated compound or allyl isothiocyanate (AITC) was used as a test sample and the test was conducted with A-967079 (1 μM), which was a TRPA1-specific antagonist, or without A-967079.

[3] = molecular target: T1, Human TRPA1 (hTRPA1); assay: TRPA1 Activation Test 2: intracellular Ca2+ imaging assay 2-1 to 2-3, hTRPA1 stably expressing cell line; details: test sample 30 μM
Method: as §3, §4, §1, §2
as §5, with “or” for “or the”
(§6) The TRPA1 activation ability of each test sample was measured in the same manner as in the above (2) except the test was conducted with A-967079 (1 μM), which is a TRPA1-specific antagonist, or without A-967079. In addition, intracellular Ca^2+ imaging assay was conducted in the same manner as in the above (2) except that a hTRPV1 stably expressing cell line, a hTRPM8 stably expressing cell line, or a Mock cell was used instead of the hTRPA1 stably expressing cell line. Note that capsaicin was used as positive control for the hTRPV1 stably expressing cell line, and icilin was used as positive control for the hTRPM8 stably expressing cell line.
A TRPA1 activation ability was measured in the same manner as in the above (2) by using, as a test sample, rhein or compounds described in the following Table 10, which had anthraquinone structures similar to rhein, at a concentration of 200 μM of the test sample.

[4] = molecular target: T2, Human TRPV1 (hTRPV1) (Homo sapiens, UniProt Q8NER1); assay: TRPA1 Activation Test 2: intracellular Ca2+ imaging assay 2-2, hTRPV1 stably expressing cell line; details: test sample 1 μM; Table 9
T2 construct: expressed in transfected cells
T2 sequence (Q8NER1 whole entry): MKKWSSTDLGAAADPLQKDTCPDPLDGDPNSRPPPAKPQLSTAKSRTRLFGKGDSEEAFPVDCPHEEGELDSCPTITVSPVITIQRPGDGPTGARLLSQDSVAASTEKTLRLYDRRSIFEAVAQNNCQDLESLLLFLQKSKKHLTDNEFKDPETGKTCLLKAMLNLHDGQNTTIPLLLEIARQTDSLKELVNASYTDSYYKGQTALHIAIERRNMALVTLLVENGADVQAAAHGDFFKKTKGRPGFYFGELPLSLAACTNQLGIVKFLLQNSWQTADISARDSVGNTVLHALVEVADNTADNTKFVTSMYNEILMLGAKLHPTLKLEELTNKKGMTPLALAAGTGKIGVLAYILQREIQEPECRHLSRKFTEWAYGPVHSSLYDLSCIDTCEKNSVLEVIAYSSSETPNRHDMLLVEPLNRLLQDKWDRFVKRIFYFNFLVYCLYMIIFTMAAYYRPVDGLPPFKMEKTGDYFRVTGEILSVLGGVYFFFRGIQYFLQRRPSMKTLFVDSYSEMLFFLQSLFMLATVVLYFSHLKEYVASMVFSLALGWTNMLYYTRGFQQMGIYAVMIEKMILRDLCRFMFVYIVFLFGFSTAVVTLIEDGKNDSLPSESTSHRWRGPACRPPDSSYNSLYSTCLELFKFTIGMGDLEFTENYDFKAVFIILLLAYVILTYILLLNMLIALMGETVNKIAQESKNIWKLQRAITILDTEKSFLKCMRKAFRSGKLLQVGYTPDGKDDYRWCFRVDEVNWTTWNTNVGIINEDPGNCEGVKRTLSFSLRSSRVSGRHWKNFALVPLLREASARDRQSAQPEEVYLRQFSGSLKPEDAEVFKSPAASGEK
Method: as §3, §4
as §1, with “This plate was set to FlexStation 3 (Molecular Devices, LLC), and a fluorescence intensity (excitation wavelength 490 nm, fluorescence wavelength 525 nm) at 31° C. was measured every two seconds, and 30 seconds after the start of the measurement, 100 μL of an assay buffer containing a test sample (allyl isothiocyanate (AITC) of positive control or rhein) which was prepared to have a certain final concentration or DMSO was added.” left out
as §2
as §5, with “or” for “or the”
as §6, with “Note that capsaicin was used as positive control for the hTRPV1 stably expressing cell line, and icilin was used as positive control for the hTRPM8 stably expressing cell line.” left out

[5] = molecular target: T2, Human TRPV1 (hTRPV1); assay: TRPA1 Activation Test 1: intracellular Ca2+ imaging assay 1-2, hTRPV1 stably expressing cell line; details: test sample 1 μM; Table 5
Method: as §3, §4
After washing with the assay buffer, 100 μL of the assay buffer was added to each well. […] Then, a well in which an assay buffer containing ionomycin (having a final concentration of 10 μM after the addition) instead of the test samples was added was also prepared as a reference for fluorescence intensity.
as §2

[6] = molecular target: T3, Human TRPM8 (hTRPM8) (Homo sapiens, UniProt Q7Z2W7); assay: TRPA1 Activation Test 1: intracellular Ca2+ imaging assay 1-2, hTRPM8 stably expressing cell line; details: test sample 5 μM; Table 5
T3 construct: expressed in transfected cells
T3 sequence (Q7Z2W7 whole entry): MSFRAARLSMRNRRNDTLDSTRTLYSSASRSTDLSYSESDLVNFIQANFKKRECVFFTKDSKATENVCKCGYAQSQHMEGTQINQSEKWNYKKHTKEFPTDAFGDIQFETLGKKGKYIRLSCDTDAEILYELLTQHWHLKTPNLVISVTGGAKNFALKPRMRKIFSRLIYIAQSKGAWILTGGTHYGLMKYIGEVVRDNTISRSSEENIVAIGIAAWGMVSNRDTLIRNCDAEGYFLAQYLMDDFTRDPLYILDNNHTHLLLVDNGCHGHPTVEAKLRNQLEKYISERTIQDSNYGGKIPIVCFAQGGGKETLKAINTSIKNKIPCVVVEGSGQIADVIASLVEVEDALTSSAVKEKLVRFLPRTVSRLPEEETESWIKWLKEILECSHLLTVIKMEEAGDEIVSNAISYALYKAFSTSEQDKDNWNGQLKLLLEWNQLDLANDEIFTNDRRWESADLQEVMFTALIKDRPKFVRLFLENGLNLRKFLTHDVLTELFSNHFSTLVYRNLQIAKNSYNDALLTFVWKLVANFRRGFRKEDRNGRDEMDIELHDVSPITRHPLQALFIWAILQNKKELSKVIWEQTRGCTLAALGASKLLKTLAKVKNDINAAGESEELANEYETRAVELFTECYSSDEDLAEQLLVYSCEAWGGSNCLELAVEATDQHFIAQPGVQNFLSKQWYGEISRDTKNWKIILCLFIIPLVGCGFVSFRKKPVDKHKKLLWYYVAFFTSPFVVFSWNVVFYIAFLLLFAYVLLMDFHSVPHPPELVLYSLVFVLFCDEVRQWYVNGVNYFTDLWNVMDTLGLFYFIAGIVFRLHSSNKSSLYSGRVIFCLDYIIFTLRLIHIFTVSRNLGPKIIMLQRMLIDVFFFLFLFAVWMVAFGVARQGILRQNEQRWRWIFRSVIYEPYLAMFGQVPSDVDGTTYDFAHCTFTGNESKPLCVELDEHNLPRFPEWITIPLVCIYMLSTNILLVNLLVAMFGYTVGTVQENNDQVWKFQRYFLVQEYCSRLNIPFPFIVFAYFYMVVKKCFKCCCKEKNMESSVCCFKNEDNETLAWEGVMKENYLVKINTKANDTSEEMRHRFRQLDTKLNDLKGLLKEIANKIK
Method: as §3, §4
A hTRPA1 stably expressing cell line in which expression of hTRPA1 had been induced in advance by a conventional method was prepared in a 96 well clear bottom plate (black), and a hTRPA1 activating action of the purified oxylipin or the R2 fraction (both were assumed to contain a compound having a molecular weight of 294) obtained in the above item 1 was tested. […] Then, a well in which an assay buffer containing ionomycin (having a final concentration of 10 μM after the addition) instead of the test samples was added was also prepared as a reference for fluorescence intensity. […]

[7] = molecular target: T3, Human TRPM8 (hTRPM8); assay: TRPA1 Activation Test 2: intracellular Ca2+ imaging assay 2-2, hTRPM8 stably expressing cell line; details: test sample 5 μM; Table 9
Method: as §3, §4
as §1, with “This plate was set to FlexStation 3 (Molecular Devices, LLC), and a fluorescence intensity (excitation wavelength 490 nm, fluorescence wavelength 525 nm) at 31° C. was measured every two seconds, and 30 seconds after the start of the measurement, 100 μL of an assay buffer containing a test sample (allyl isothiocyanate (AITC) of positive control or rhein) which was prepared to have a certain final concentration or DMSO was added.” left out
as §2
as §5, with “or” for “or the”
as §6, with “Note that capsaicin was used as positive control for the hTRPV1 stably expressing cell line, and icilin was used as positive control for the hTRPM8 stably expressing cell line.” left out

With `C=CCN=C=S` [AITC, allyl isothiocyanate, reference compound] as the compound, how does the “Activation rate, Mock” value [1] read?
The value was 6.40 ± 0.143%.

What about the “TRPA1 activation rate, With antagonist” value ([2]; Table 4) of the same compound?
Its value is 1.30 ± 0.639%.

What about the “TRPA1 activation rate, With antagonist” value ([2]; Table 6) of the same compound?
Its value is 1.44 ± 0.163%.

What about the “TRPA1 activation rate, Without antagonist” value ([2]; Table 4) of the same compound?
The value was 160 ± 2.58%.

And the “TRPA1 activation rate, Without antagonist” value ([2]; Table 6)?
Its value is 128 ± 2.99%.

And the “TRPA1 activation rate, With antagonist” value ([3]; A-967079 1 μM, Table 8)?
The value was 15.7 ± 7.81 %.

And the “TRPA1 activation rate, With antagonist” value ([3]; A-967079, Table 11)?
Its value is 0.811 ± 0.0386 %.

And the TRPA1 activation rate ([3]; Table 7)?
The TRPA1 activation rate was 101 ± 3.66%.

What about the “TRPA1 activation rate, Without antagonist” value ([3]; Table 8) of the same compound?
Its value is 104 ± 6.10%.

What about the “TRPA1 activation rate, Without antagonist” value ([3]; Table 11) of the same compound?
The value was 115 ± 6.15%.

`COc1cc(CNC(=O)CCCC/C=C/C(C)C)ccc1O` [Capsaicin, capsaicin, reference compound] was tested. Which TRPV1 activation rate [4] did it give?
Its TRPV1 activation rate is 96.3 ± 3.24%.

And the TRPV1 activation rate [5]?
The TRPV1 activation rate was 113 ± 1.16%.

With `O=C1NC(c2cccc([N+](=O)[O-])c2)=CCN1c1ccccc1O` [Icilin, icilin, reference compound] as the compound, how does the TRPM8 activation rate [6] read?
Its TRPM8 activation rate is 79.8 ± 1.71%.

What about the TRPM8 activation rate [7] of the same compound?
The TRPM8 activation rate was 104 ± 2.19^ %.
